Laboratory results: patent publication US20230009608A1, “GRK2 INHIBITORS AND USES THEREOF” (Cygnal Therapeutics, Inc., priority 2020, published 2023)

Tested on: PAXF1657 control empty vector cell line
Assay: 7-day proliferation assay, PAXF1657 control empty vector cell line (Example 9)
Format: cell-based
Conditions: 168 h; Cell Line: PAXF1657 empty vector (EV) cell line; 7-day; read-out: C: 7-day proliferation assay: IC50 GeoMean
Description: In order to identify compounds specific for GRK2, we generated two isogenic cell line pairs of the pancreatic cancer cell line PAXF1657, a pair of cells stably overexpressing GRK2 cDNA or the control empty vector and a cell line pair of PAXF1657 GRK2 knockout clonal cells versus non-targeting control clonal cells.
Proliferation Assay: Cellular anti-proliferative activity of compounds was assessed by using the pancreatic cancer cell line, PAXF1657, stably overexpressing GRK2 cDNA or the control empty vector, as well as the parental urinary bladder cancer cell line, 5637. In addition, we also took advantage of GRK2 knockout cell lines that were generated via CRISPR. Cell lines were seeded into tissue culture treated, white-walled, 96-well plates at a density of 500 cells/well in RPMI1640 media supplemented with 10% H.I. FBS and penicillin/streptomycin. Plates were incubated overnight at 37° C., 5% CO2 to allow cells to adhere to the wells. GRK2 inhibitors were added to the cells using a 10-point dilution series with a final concentration ranging from 30 μM-0.0002 μM in 0.3% DMSO. At the time of compound addition, a set of plates, that were not treated with compounds, were collected and cell viability was measured using CellTiter-Glo (Promega). CellTiter-Glo reagent was added to the designed plates and luminescence was measuring using a Biotek Synergy plate reader. The compound treated cells were incubated for 3 days at 37° C., 5% CO2. The media was then aspirated from each well and replaced with fresh media containing GRK2 inhibitors. The compound treated cells were then incubated for an additional 4 days at 37° C., 5% CO2. Cell viability was assessed and at end of the 7-day compound treatment by CellTiterGlo.

SMILES | IC50 [µM]
O=C(NCC1(F)CCC1)c1cccc(NCc2nnc(-c3ccncc3)[nH]2)c1 | 3.22
O=C(NCCc1ncccn1)c1cccc(NCc2nnc(-c3ccncc3)[nH]2)c1 | > 10
CNc1cc(CNC(=O)c2cccc(NCc3nnc(-c4ccncc4)[nH]3)c2)ccn1 | > 10
Cn1c(CNc2cccc(C(=O)NC3(c4nccs4)CCCC3)c2)nnc1-c1ccncn1 | > 10
Cn1c(CNc2cccc(C(=O)NCc3ncoc3C(F)(F)F)c2)nnc1-c1ccncn1 | > 10
O=C(NCc1cccnc1-n1ccnc1)c1cccc(NCc2nnc(-c3ccncc3)[nH]2)c1 | > 10
Cn1c(CNc2cccc(C(=O)NCc3cn[nH]c3)c2)nnc1-c1ccncn1 | > 10
C[C@H](NC(=O)c1cccc(NCc2nnc(-c3ccncc3)[nH]2)c1)c1cnnn1C | > 10
Cn1c(CNc2cccc(C(=O)NCc3ccc(-n4cncn4)cc3)c2)nnc1-c1ccncn1 | > 10
Cn1c(CNc2cccc(C(=O)NC3(c4ccc(F)cn4)CC3)c2)nnc1-c1ccncn1 | 0.291
[2H]C([2H])(Nc1cccc(C(=O)N[C@@H]2CCOc3cccnc32)c1)c1nnc(-c2ccncn2)n1C | 0.274
Cn1c(CNc2cccc(C(=O)NCc3cncc(F)c3)c2)nnc1-c1ccncn1 | > 10
Cc1cccc(CNC(=O)c2cccc(NCc3nnc(-c4ccncn4)n3C)c2)n1 | 3.92
Cn1c(CNc2cccc(C(=O)NCc3ccccc3-n3cncn3)c2)nnc1-c1ccncn1 | > 10
CCn1nc(C)c(CNC(=O)c2cccc(NCc3nnc(-c4ccncc4)[nH]3)c2)c1C | > 10
COCCn1cc(C(C)NC(=O)c2cccc(NCc3nnc(-c4ccncc4)[nH]3)c2)cn1 (centres unmarked) | > 10
Cn1c(CNc2cccc(C(=O)NC3(c4ccccn4)CC3)c2)nnc1-c1ccncn1 | 2.03
Cc1csc(CNC(=O)c2cccc(NCc3nnc(-c4ccncn4)n3C)c2)n1 [drawing 407] | 0.862
Cn1c(CNc2cccc(C(=O)NCc3ccc(Cn4cncn4)cc3)c2)nnc1-c1ccncn1 | > 10
O=C(NCc1nnc2n1CCCC2C(F)(F)F)c1cccc(NCc2nnc(-c3ccncc3)[nH]2)c1 (centres unmarked) | > 10

SMILES | IC50 [µM]
O=C(NCc1ccncn1)c1cccc(NCc2nnc(-c3ccncc3)[nH]2)c1 | > 10
CC(NC(=O)c1cccc(NCc2nnc(-c3ccncc3)[nH]2)c1)c1nncn1C (centres unmarked) | > 10
CC(NC(=O)c1cccc(NCc2nnc(-c3ccncn3)n2C)c1)c1ccn[nH]1 (centres unmarked) | > 10
Cn1c(CNC(=O)c2cccc(NCc3nnc(-c4ccncc4)[nH]3)c2)nnc1C1CC1 | > 10
Cn1c(CNc2cccc(C(=O)NCc3cc(C(C)(C)C)ccn3)c2)nnc1-c1ccncn1 | 2.67
Cn1c(CNc2cccc(C(=O)NC3CCCc4ncccc43)c2)nnc1-c1ccncn1 (centres unmarked) | 2.5
CCn1nccc1CNC(=O)c1cccc(NCc2nnc(-c3ccncc3)[nH]2)c1 | 0.739
C[C@H](NC(=O)c1cccc(NCc2nnc(-c3ccncc3)[nH]2)c1)c1ccncc1 | > 10
Cn1c(CNc2cccc(C(=O)N[C@H]3c4ccccc4CC[C@H]3O)c2)nnc1-c1ccncn1 | > 10
Cn1c(CNc2cccc(C(=O)NC(C)(C)c3ncccn3)c2)nnc1-c1ccncn1 | > 10
CCC(NC(=O)c1cccc(NCc2nnc(-c3ccncn3)n2C)c1)c1ncccn1 (centres unmarked) | 5.39
COc1ccc(CNC(=O)c2cccc(NCc3nnc(-c4ccncn4)n3C)c2)nc1 | > 10
Cc1nc(CNC(=O)c2cccc(NCc3nnc(-c4ccncn4)n3C)c2)c[nH]1 | > 10
CCn1cnnc1CNC(=O)c1cccc(NCc2nnc(-c3ccncc3)[nH]2)c1 | > 10
Cn1c(CNC(=O)c2cccc(NCc3nnc(-c4ccncc4)[nH]3)c2)nnc1C1CCC1 | > 10
CC(NC(=O)c1cccc(NCc2nnc(-c3ccncc3)[nH]2)c1)c1ncn(C)n1 (centres unmarked) | > 10
O=C(NC1(c2ccncc2)CC1)c1cccc(NCc2nnc(-c3ccncc3)[nH]2)c1 | > 10
CC(NC(=O)c1cccc(NCc2nnc(-c3ccncn3)n2C)c1)c1ccon1 (centres unmarked) | > 10
Cc1ccnc(CNC(=O)c2cccc(NCc3nnc(-c4ccncn4)n3C)c2)n1 | > 10
CN1CCN(c2nccc(CNC(=O)c3cccc(NCc4nnc(-c5ccncn5)n4C)c3)n2)CC1 | > 10

SMILES | IC50 [µM]
O=C(NCc1nnc2n1CCC(C(F)(F)F)C2)c1cccc(NCc2nnc(-c3ccncc3)[nH]2)c1 (centres unmarked) | 89.3
CCn1nccc1C(C)NC(=O)c1cccc(NCc2nnc(-c3ccncc3)[nH]2)c1 (centres unmarked) | > 10
O=C(NCc1ccncc1OCC(F)F)c1cccc(NCc2nnc(-c3ccncc3)[nH]2)c1 | > 10
Cc1cc(CNC(=O)c2cccc(NCc3nnc(-c4ccncc4)[nH]3)c2)ccn1 | > 10
O=C(NCc1cccnn1)c1cccc(NCc2nnc(-c3ccncc3)[nH]2)c1 | > 10
CC(C)Oc1ncccc1CNC(=O)c1cccc(NCc2nnc(-c3ccncn3)n2C)c1 | 2.36
C[C@H](NC(=O)c1cccc(NCc2nnc(-c3ccncn3)n2C)c1)c1ccnn1C | > 10
COC[C@H](NC(=O)c1cccc(NCc2nnc(-c3ccncc3)[nH]2)c1)c1cccnc1 | > 10
COc1ccccc1[C@@H](NC(=O)c1cccc(NCc2nnc(-c3ccncn3)n2C)c1)c1nccn1C | 78.2
Cn1ncnc1CNC(=O)c1cccc(NCc2nnc(-c3ccncc3)[nH]2)c1 | > 10
CC1(CNC(=O)c2cccc(NCc3nnc(-c4ccncc4)[nH]3)c2)CCCOC1 (centres unmarked) | > 10
Cn1c(CNc2cccc(C(=O)NCc3ccccc3C(F)(F)F)c2)nnc1-c1ccncn1 | 1.15
Cc1nc2n(n1)CCCC2NC(=O)c1cccc(NCc2nnc(-c3ccncn3)n2C)c1 (centres unmarked) | > 10
CCN(CC)C(=O)C(NC(=O)c1cccc(NCc2nnc(-c3ccncn3)n2C)c1)c1ccccc1 (centres unmarked) | > 10
Cn1c(CNc2cccc(C(=O)NCc3ncccn3)c2)nnc1-c1ccncn1 | > 10
Cc1csc(C(C)(C)NC(=O)c2cccc(NCc3nnc(-c4ccncn4)n3C)c2)n1 | > 10
CO[C@H]1C[C@H](CNC(=O)c2cccc(NCc3nnc(-c4ccncc4)[nH]3)c2)C1 | > 10
O=C(NCc1nccn1CC(F)(F)F)c1cccc(NCc2nnc(-c3ccncc3)[nH]2)c1 | > 10
CCn1nc(C)c(CNC(=O)c2cccc(NCc3nnc(-c4ccncn4)n3C)c2)n1 | 0.555
